The values below are quoted from earlier work in patent US20250339514A1, “SINGLE-AND MULTI-EPITOPE PEPTIDE AND MRNA VACCINES TO GENERATE TOLEROGENIC EFFECTS FOR ALLERGIC AND AUTOIMMUNE DISEASE BY TARGETING LIVER SINUSOIDAL ENDOTHELIAL CELLS” (The Regents of the University of California, priority 2022, published 2025).

One data set deals with human T-cell lines. The following applies: T-cell lines isolated from 10 different donors; cited from earlier work.
In a further data set the test system is C57BL/6J mice. Conditions: inhalation of low peptide concentrations, naïve C57BL/6J mice; cited from earlier work.
The next data set relates to lupus-prone mice. Conditions: subcutaneous every 2 weeks; cited from earlier work.
A further data set deals with MRL/lpr mice. Conditions: repeated administration; cited from earlier work.
For another data set, the system named is lupus patients. The following applies: Phase 1 and Phase 2 clinical trials; cited from earlier work.

With “AH96-110: adalimumab HCDR3 peptide (CAKVSYLSTASSLDY; listed as Homo sapiens)”, the “recognition by T-cell lines” value in the data set on human T-cell lines is “recognized by the majority of T-cell lines”.

Turning to “Der p1 T-cell epitope (residues 111-139): major Der p1 T-cell epitope peptide (Hoyne et al.) (FGISNYCQIYPPNVNKIREALAQTHSAIA; UniProt P08176 209-237, looked up, fragment)”, the tolerance induction result in the data set with C57BL/6J mice is “capable of inducing tolerance”.

As to “H4 aa 71-94: nucleosomal histone H4 peptide autoepitope”, in the data set on lupus-prone mice, the efficacy of autoepitope result is “most effective autoepitope”.

As for RIHMVYSKRpSGKPRGYAFIEY [P140], the “T-cell epitope spreading to other U1-70K regions” value in the data set on MRL/lpr mice is listed as “transiently abolishing T-cell epitope spreading”. Also, the clinical efficacy result in the data set on lupus patients is “effective in treating lupus patients”.
